In patent publication US11021486B2, “Coumarin-like cyclic compound as MEK inhibitor and use thereof” (CSTONE PHARMACEUTICALS, priority 2017, dated 2021):
Where two headings read alike, the source gives them in different places.

Experiments:
A375 cells = assay: Cell viability experiment (Cell Titer-Glo), A375; type: cell-based
Experimental: (§1) Biological Test Method 2: Cell Viability Experiment
(§2) HT29 and A375 cells were plated in a 96-well cell culture plate at a density of 40,000 cells/well and 20,000 cells/well respectively, and the cells were cultured overnight. The compounds were serially diluted in a gradient of 1:3, the dilutions were added to the cell culture medium, and incubated with the cells in a 37° C. incubator for 3 days. The 96-well cell culture plate was taken from the incubator and equilibrated at room temperature for 30 minutes, then Cell Titer-Glo reagent (Promega Cat #G7573) was added at a ratio of 1:2, and the mixture was mixed thoroughly on a shaker for 2 minutes to promote cell lysis. The cell culture plate was incubated at room temperature for 10 minutes and then read on an Envision microplate reader (PerkinElmer). XLfit5 software was used for data analysis and mapping.

HT29 cells = assay: Cell viability experiment (Cell Titer-Glo), HT29; type: cell-based, human
Experimental: as §1, §2

activated MEK1 = target: T1, activated MEK1 (Homo sapiens, UniProt Q02750); assay: MEK Lance Ultra experiment; type: biochemical; conditions: 0.07 nM activated MEK1, 2 nM non-activated ERK, 50 μM ATP; read-out: MEK potency IC50
T1 construct: purchased Millipore 14-429
Experimental: Biological Test Method 1: MEK Lance Ultra Experiment Compounds were serially diluted three-fold to 10 concentrations, two duplicates were set. Final test concentrations of the compounds ranged from 10 μM to 0.51 nM. 0.07 nM activated MEK1 (Millipore #14-429) and 2 nM non-activated ERK (Millipore #14-515) were mixed with the compounds or DMSO, the mixture was incubated at 23° C. for 30 minutes. Then 50 nM ULight labeled MBP (PerkinElmer #TRF0109-M) and 50 μM ATP (Invitrogen #PV3227) were added to initiate the reaction, and the mixture was incubated at 23° C. for 90 minutes. After the reaction was stopped by adding EDTA at a final concentration of 15 mM, 2 nM Eu-labeled anti-phosphorylated antibody (PerkinElmer #TRF0201-M) was added and incubated for 1 hour. The fluorescence signal data (excitation band: 320 nm; emission band: 665 nM/615 nM) was determined by an Envision microplate reader (PerkinElmer). XLfit5 software was used for data analysis and mapping.

[1] = Homo sapiens, A-375, 72 h, A375 cells, 3 days incubation, read-out: A375 IC50
[2] = Homo sapiens, HT-29, 72 h, HT29 cells, 3 days incubation, read-out: HT29 IC50
[3] = Homo sapiens, A-375, 72 h, read-out: A375 IC50, A375 cells, 3 days incubation
[4] = Homo sapiens, HT-29, 72 h, read-out: HT29 IC50, HT29 cells, 3 days incubation
[5] = A375 cells, 3 days incubation, read-out: A375 IC50
[6] = HT29 cells, 3 days incubation, read-out: HT29 IC50
[7] = read-out: A375 IC50, A375 cells, 3 days incubation
[8] = read-out: HT29 IC50, HT29 cells, 3 days incubation

T1 sequence (Q02750 whole entry): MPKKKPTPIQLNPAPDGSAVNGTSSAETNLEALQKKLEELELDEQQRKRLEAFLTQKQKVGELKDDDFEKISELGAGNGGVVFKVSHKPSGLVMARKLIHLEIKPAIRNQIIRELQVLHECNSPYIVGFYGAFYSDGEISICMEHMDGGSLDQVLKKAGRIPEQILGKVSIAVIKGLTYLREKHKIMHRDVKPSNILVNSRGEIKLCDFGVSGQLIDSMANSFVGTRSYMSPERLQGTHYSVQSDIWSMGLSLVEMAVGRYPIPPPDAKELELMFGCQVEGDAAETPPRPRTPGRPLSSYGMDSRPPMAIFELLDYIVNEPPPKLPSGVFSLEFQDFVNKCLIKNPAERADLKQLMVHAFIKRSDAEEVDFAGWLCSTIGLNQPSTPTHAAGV

SMILES | IC50 (A375 cells; [1]) | IC50 (HT29 cells; [2]) | IC50 (activated MEK1) | further results
CC(=O)Nc1cncc(-c2c(C)n(C3CC3)c(=O)c3c(Nc4ccc(I)cc4F)c(C)c(=O)oc23)n1 [WX115] | 5.09 nM | 15.7 nM | 40.3 nM | –
CC(=O)Nc1cccc(-c2c(C)n(C3CC3)c(=O)c3c(Nc4ccc(I)cc4F)c(C)c(=O)oc23)c1C [WX096] | – | – | 8.73 nM | IC50 (A375 cells; [3]): 2.47 nM; IC50 (HT29 cells; [4]): 10.3 nM
Cc1c(Nc2ccc(I)cc2F)c2c(=O)n(C3CC3)c(C)c(-c3cccc(N(S(C)(=O)=O)S(C)(=O)=O)c3)c2oc1=O [WX067] | 25.1 nM | 75.3 nM | 199 nM | –
Cc1c(Nc2ccc(I)cc2F)c2c(=O)n(C3CC3)c(C)c(-c3cccc(C[S+](C)[O-])c3)c2oc1=O (single isomer, unassigned) [WX084] | – | – | 176 nM | IC50 (A375 cells; [5]): 6.18 nM; IC50 (HT29 cells; [6]): 17.4 nM
COCCn1c(C)cc2oc(=O)c(C)c(Nc3ccc(I)cc3F)c2c1=O [WX060] | 66.9 nM | 115 nM | 86.4 nM | –
CC(=O)Nc1cccc(-c2c(C)n(C3CC3)c(=O)c3c(Nc4ccc(I)cc4F)c(C)c(=O)oc23)n1 [WX039] | 1.61 nM | 4.27 nM | 52 nM | –
CC(=O)Nc1cccc(Cc2c(C)n(C3CC3)c(=O)c3c(Nc4ccc(I)cc4F)c(C)c(=O)oc23)c1 [WX102] | 0.37 nM | 2.05 nM | 12.3 nM | –
Cc1c(Nc2ccc(I)cc2F)c2c(=O)n(C3CC3)c(C)c(-c3ccnc(NS(C)(=O)=O)c3)c2oc1=O [WX105] | 8.19 nM | 16.2 nM | 282 nM | –
Cc1c(Nc2ccc(I)cc2F)c2c(=O)n(C3CC3)c(C)c(-c3cccc(NS(C)(=O)=O)c3Cl)c2oc1=O (single isomer, unassigned) [WX116] | – | – | 34.5 nM | IC50 (A375 cells; [7]): 0.39 nM; IC50 (HT29 cells; [8]): 0.82 nM
Cc1ccccc1-c1c(C)n(C2CC2)c(=O)c2c(Nc3ccc(I)cc3F)c(C)c(=O)oc12 [WX111] | 3.56 nM | 14.9 nM | 14.4 nM | –
Cc1[nH]c(=O)c2c(Nc3ccc(I)cc3F)c(C)c(=O)oc2c1-c1cccc(NS(C)(=O)=O)c1C (single isomer, unassigned) [WX118] | – | – | 32.7 nM | IC50 (A375 cells; [5]): 0.41 nM; IC50 (HT29 cells; [6]): 1.76 nM
Cc1c(Nc2ccc(I)cc2F)c2c(=O)n(C3CC3)c(C)c(Cc3cccc(N)c3)c2oc1=O [WX101] | 1.76 nM | 12.6 nM | 17.4 nM | –
CNCCn1c(C)c(-c2cccc(NC(C)=O)c2)c2oc(=O)c(C)c(Nc3ccc(I)cc3F)c2c1=O [WX054] | 484 nM | 334 nM | 81.5 nM | –
CCc1c(Nc2ccc(I)cc2F)c2c(=O)n(C3CC3)c(C)c(-c3cccc(CS(C)(=O)=O)c3C)c2oc1=O [WX110] | 94.5 nM | 207 nM | 93.6 nM | –
Cc1c(Nc2ccc(I)cc2F)c2c(=O)n(C3CC3)c(C)c(-c3cccc(N[S+]([O-])C(C)(C)C)c3)c2oc1=O (stereo not drawn) [WX091] | 10.1 nM | 35.6 nM | 128 nM | –
CC(=O)Nc1ccc(C)c(-c2c(C)n(C3CC3)c(=O)c3c(Nc4ccc(I)cc4F)c(C)c(=O)oc23)c1 [WX036] | 33.6 nM | 69 nM | 44.3 nM | –
Cc1c(CS(=O)(=O)C2CC2)cccc1-c1c(C)n(C2CC2)c(=O)c2c(Nc3ccc(I)cc3F)c(C)c(=O)oc12 [WX108] | – | – | 29.6 nM | IC50 (A375 cells; [3]): 2.3 nM; IC50 (HT29 cells; [4]): 13.1 nM
Cc1c(Nc2ccc(I)cc2F)c2c(=O)n(C3CC3)c(C)c(-c3cccc(C[S+](C)[O-])c3)c2oc1=O (single isomer, unassigned) [WX083] | 8.62 nM | 10.5 nM | 146 nM | –
Cc1c(Nc2ccc(I)cc2F)c2c(=O)n(CC(O)CO)c(C)cc2oc1=O (stereo not drawn) [WX053] | 3.27 nM | 9.19 nM | 92.8 nM | –
CC(=O)Nc1cccc(-c2c(C)n(CCN(C)S(C)(=O)=O)c(=O)c3c(Nc4ccc(I)cc4F)c(C)c(=O)oc23)c1 [WX055] | 643 nM | 978 nM | 71.1 nM | –
Cc1c(Nc2ccc(I)cc2F)c2c(=O)n(C3CC3)c(C)c(-c3cccc(NC(=O)C4COC4)c3)c2oc1=O [WX065] | 4.31 nM | 7.38 nM | 36.2 nM | –
Cc1c(Nc2ccc(I)cc2F)c2c(=O)n(C3CC3)c(C)c(-c3cccc(C[S+](C)[O-])c3)c2oc1=O (stereo not drawn) [WX068] | 3.66 nM | 9.77 nM | 35 nM | –

SMILES | IC50 (A375 cells; [1]) | IC50 (HT29 cells; [2]) | IC50 (activated MEK1) | further results
Cc1c(Nc2ccc(I)cc2F)c2c(=O)n(C3CC3)c(C)c(-c3cccc(NS(C)(=O)=O)c3Cl)c2oc1=O (single isomer, unassigned) [WX117] | – | – | 424 nM | IC50 (A375 cells; [7]): 7.18 nM; IC50 (HT29 cells; [8]): 18.7 nM
CCS(=O)(=O)Nc1cccc(-c2c(C)n(C3CC3)c(=O)c3c(Nc4ccc(I)cc4F)c(C)c(=O)oc23)c1 [WX082] | 1.75 nM | 3.93 nM | 97.4 nM | –
Cc1c(Nc2ccc(I)cc2F)c2c(=O)n(C3CC3)c(C)c(-c3cccc(CNS(N)(=O)=O)c3)c2oc1=O [WX092] | 7.54 nM | 8.96 nM | 178 nM | –
COC(=O)Nc1cccc(-c2c(C)n(C3CC3)c(=O)c3c(Nc4ccc(I)cc4F)c(C)c(=O)oc23)c1 [WX094] | 5.47 nM | 18.9 nM | 45.2 nM | –
CC(=O)Nc1cccc(-c2c(C)n(C)c(=O)c3c(Nc4ccc(I)cc4F)c(C)c(=O)oc23)c1 [WX040] | 69.7 nM | 64.1 nM | 581 nM | –
COC(OC)C(=O)Nc1cccc(-c2c(C)n(C3CC3)c(=O)c3c(Nc4ccc(I)cc4F)c(C)c(=O)oc23)c1 [WX081] | 5.26 nM | 13 nM | 105 nM | –
CNC(=O)Nc1cccc(-c2c(C)n(C3CC3)c(=O)c3c(Nc4ccc(I)cc4F)c(C)c(=O)oc23)c1 [WX099] | 4.72 nM | 12.4 nM | 49.1 nM | –
CC(=O)Nc1cccc(-c2c(C)[nH]c(=O)c3c(Nc4ccc(I)cc4F)c(C)c(=O)oc23)c1 [WX049] | 3.08 nM | 7.4 nM | 67 nM | –
CC(=O)Nc1cccc(-c2c(C)n(CC(O)CO)c(=O)c3c(Nc4ccc(I)cc4F)c(C)c(=O)oc23)c1 (stereo not drawn) [WX058] | 91.1 nM | 102 nM | 83 nM | –
Cc1c(Nc2ccc(I)cc2F)c2c(=O)n(C3CC3)c(C)c(-c3cccc(NC(=O)N4CCOCC4)c3)c2oc1=O [WX085] | 4.65 nM | 9.34 nM | 118 nM | –
CC(=O)Nc1cccc(-c2c(C)n(CCN(C)C(C)=O)c(=O)c3c(Nc4ccc(I)cc4F)c(C)c(=O)oc23)c1 [WX056] | 1550 nM | 2820 nM | 54.1 nM | –
Cc1c(CS(C)(=O)=O)cccc1-c1c(C)n(C2CC2)c(=O)c2c(Nc3ccc(I)cc3F)c(C)c(=O)oc12 [WX106] | – | – | 29.9 nM | IC50 (A375 cells; [3]): 2.32 nM; IC50 (HT29 cells; [4]): 5.89 nM
COCCNc1cccc(-c2c(C)n(C3CC3)c(=O)c3c(Nc4ccc(I)cc4F)c(C)c(=O)oc23)c1 [WX087] | 9.42 nM | 23.7 nM | 152 nM | –
Cc1c(Nc2ccc(I)cc2F)c2c(=O)n(C3CC3)c(C)c(-c3cccc(C(N)=O)c3)c2oc1=O [WX112] | 6.04 nM | 20.3 nM | 52.9 nM | –
CC(=O)Nc1ccc(F)c(-c2c(C)n(C3CC3)c(=O)c3c(Nc4ccc(I)cc4F)c(C)c(=O)oc23)c1 [WX048] | 52.6 nM | 101 nM | 581 nM | –
COCCn1c(C)c(-c2cccc(NC(C)=O)c2)c2oc(=O)c(C)c(Nc3ccc(I)cc3F)c2c1=O [WX061] | 442 nM | 446 nM | 57.5 nM | –
Cc1c(CS(C)(=O)=O)cccc1-c1c(C)n(C)c(=O)c2c(Nc3ccc(I)cc3F)c(C)c(=O)oc12 [WX109] | 29.2 nM | 90.7 nM | 119 nM | –
Cc1c(Nc2ccc(I)cc2F)c2c(=O)n(C3CC3)c(C)cc2oc1=O [WX035] | 32.9 nM | 98.8 nM | 111 nM | –
COCCCn1c(C)c(-c2cccc(NC(C)=O)c2)c2oc(=O)c(C)c(Nc3ccc(I)cc3F)c2c1=O [WX062] | 631 nM | 745 nM | 68 nM | –
Cc1c(Nc2ccc(I)cc2F)c2c(=O)n(C3CC3)c(C)c(-c3cccc(CS(=O)(=O)CCO)c3)c2oc1=O [WX100] | 2.11 nM | 6.84 nM | 114 nM | –
Cc1c(Nc2ccc(I)cc2F)c2c(=O)n(C3CC3)c(C)c(-c3ccnc(N)c3)c2oc1=O [WX079] | 3.23 nM | 5.52 nM | 35.3 nM | –
